Source: the supplement of paper PMC10307832

Experiments:
Test in all cases: relative viability (nuclei count vs DMSO), 5 days (fraction); higher = more cells survive
[1] = system: NCI-H647
How it was run: (§1)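 Medians of duplicate plates are given as relative viability. That measure is the nuclei count in treated wells divided by the count in vehicle wells. Counts were taken on 4× images of lung cancer cell lines in 1536-well plates, 5 days after pin-tool dosing the day after seeding with one drug alone or a fixed anchor-drug dose plus five library-drug doses (not always all listed) in √10 steps.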

[2] = system: H3255
How it was run: as §1

[3] = system: NCI-H2347
How it was run: as §1

[4] = system: NCI-H520
How it was run: as §1

[5] = system: RERF-LC-KJ
How it was run: as §1

[6] = system: PC-14
How it was run: as §1

[7] = system: HCC-827
How it was run: as §1

[8] = system: 201T
How it was run: as §1

[9] = system: NCI-H2126
How it was run: as §1

[10] = system: COR-L 105
How it was run: as §1

[11] = system: ChaGo-K-1
How it was run: as §1

[12] = system: NCI-H1666
How it was run: as §1

[13] = system: LC-2-ad
How it was run: as §1

[14] = system: NCI-H2405
How it was run: as §1

[15] = system: LCLC-97TM1
How it was run: as §1

[16] = system: NCI-H661
How it was run: as §1

[17] = system: NCI-H650
How it was run: as §1

[18] = system: EPLC-272H
How it was run: as §1

[19] = system: NCI-H1915
How it was run: as §1

[20] = system: NCI-H23
How it was run: as §1

[21] = system: NCI-H2087
How it was run: as §1

Cc1sc2c(c1C)C(c1ccc(Cl)cc1)=N[C@@H](CC(=O)OC(C)(C)C)c1nnc(C)n1-2 [JQ1] + CCNC(=O)c1noc(-c2cc(C(C)C)c(O)cc2O)c1-c1ccc(CN2CCOCC2)cc1 [Luminespib] (partner 0.01 µM)
relative viability ([1]; first compound 0.04 µM): 0.239 | relative viability ([1]; first compound 0.1265 µM): 0.113 | relative viability ([1]; first compound 0.4 µM): 0.134 | relative viability ([1]; first compound 1.265 µM): 0.113 | relative viability ([1]; first compound 4 µM): 0.073 | relative viability ([2]; first compound 0.04 µM): 0.904 | relative viability ([2]; first compound 0.1265 µM): 0.699 | relative viability ([2]; first compound 0.4 µM): 1.01 | relative viability ([2]; first compound 1.265 µM): 0.768 | relative viability ([2]; first compound 4 µM): 0.416 | relative viability ([3]; first compound 0.04 µM): 0.45 | relative viability ([3]; first compound 0.1265 µM): 0.675 | relative viability ([3]; first compound 0.4 µM): 0.3 | relative viability ([3]; first compound 1.265 µM): 0.316 | relative viability ([3]; first compound 4 µM): 0.32 | relative viability ([4]; first compound 0.04 µM): 0.224 | relative viability ([4]; first compound 0.1265 µM): 0.244 | relative viability ([4]; first compound 0.4 µM): 0.218 | relative viability ([4]; first compound 1.265 µM): 0.25 | relative viability ([4]; first compound 4 µM): 0.229 | relative viability ([5]; first compound 0.04 µM): 1.25 | relative viability ([5]; first compound 0.1265 µM): 1.07 | relative viability ([5]; first compound 0.4 µM): 1.04 | relative viability ([5]; first compound 1.265 µM): 0.668 | relative viability ([5]; first compound 4 µM): 0.414 | relative viability ([6]; first compound 0.04 µM): 0.146 | relative viability ([6]; first compound 0.1265 µM): 0.146 | relative viability ([6]; first compound 0.4 µM): 0.0705 | relative viability ([6]; first compound 1.265 µM): 0.0929 | relative viability ([6]; first compound 4 µM): 0.0646 | relative viability ([7]; first compound 0.04 µM): 0.887 | relative viability ([7]; first compound 0.4 µM): 0.424 | relative viability ([7]; first compound 1.265 µM): 0.624 | relative viability ([7]; first compound 4 µM): 0.59 | relative viability ([8]; first compound 0.04 µM): 1.06 | relative viability ([8]; first compound 0.1265 µM): 0.77 | relative viability ([8]; first compound 0.4 µM): 0.745 | relative viability ([8]; first compound 1.265 µM): 0.753 | relative viability ([8]; first compound 4 µM): 0.522 | relative viability ([9]; first compound 0.04 µM): 0.968 | relative viability ([9]; first compound 0.1265 µM): 0.767 | relative viability ([9]; first compound 0.4 µM): 0.977 | relative viability ([9]; first compound 1.265 µM): 0.864 | relative viability ([9]; first compound 4 µM): 0.659 | relative viability ([10]; first compound 0.04 µM): 0.66 | relative viability ([10]; first compound 0.1265 µM): 0.49 | relative viability ([10]; first compound 0.4 µM): 0.369 | relative viability ([10]; first compound 1.265 µM): 0.239 | relative viability ([10]; first compound 4 µM): 0.206 | relative viability ([11]; first compound 0.04 µM): 0.77 | relative viability ([11]; first compound 0.1265 µM): 0.503 | relative viability ([11]; first compound 0.4 µM): 0.452 | relative viability ([11]; first compound 1.265 µM): 0.322 | relative viability ([11]; first compound 4 µM): 0.285 | relative viability ([12]; first compound 0.04 µM): 1.03 | relative viability ([12]; first compound 0.1265 µM): 0.916 | relative viability ([12]; first compound 0.4 µM): 0.908 | relative viability ([12]; first compound 1.265 µM): 0.669 | relative viability ([12]; first compound 4 µM): 0.64 | relative viability ([13]; first compound 0.04 µM): 0.892 | relative viability ([13]; first compound 0.1265 µM): 0.58 | relative viability ([13]; first compound 0.4 µM): 0.576 | relative viability ([13]; first compound 1.265 µM): 0.395 | relative viability ([13]; first compound 4 µM): 0.331 | relative viability ([14]; first compound 0.04 µM): 0.795 | relative viability ([14]; first compound 0.1265 µM): 0.637 | relative viability ([14]; first compound 0.4 µM): 0.963 | relative viability ([14]; first compound 1.265 µM): 0.719 | relative viability ([14]; first compound 4 µM): 0.655 | relative viability ([15]; first compound 0.04 µM): 0.81 | relative viability ([15]; first compound 0.1265 µM): 0.762 | relative viability ([15]; first compound 0.4 µM): 0.768 | relative viability ([15]; first compound 1.265 µM): 0.356 | relative viability ([15]; first compound 4 µM): 0.3 | relative viability ([16]; first compound 0.04 µM): 0.971 | relative viability ([16]; first compound 0.1265 µM): 0.968 | relative viability ([16]; first compound 0.4 µM): 1.01 | relative viability ([16]; first compound 1.265 µM): 0.646 | relative viability ([16]; first compound 4 µM): 0.593 | relative viability ([17]; first compound 0.04 µM): 0.743 | relative viability ([17]; first compound 0.1265 µM): 0.7 | relative viability ([17]; first compound 0.4 µM): 0.546 | relative viability ([17]; first compound 1.265 µM): 0.203 | relative viability ([17]; first compound 4 µM): 0.212 | relative viability ([18]; first compound 0.04 µM): 0.451 | relative viability ([18]; first compound 0.1265 µM): 0.332 | relative viability ([18]; first compound 0.4 µM): 0.238 | relative viability ([18]; first compound 1.265 µM): 0.179 | relative viability ([18]; first compound 4 µM): 0.189 | relative viability ([19]; first compound 0.04 µM): 0.56 | relative viability ([19]; first compound 0.1265 µM): 0.668 | relative viability ([19]; first compound 0.4 µM): 0.364 | relative viability ([19]; first compound 1.265 µM): 0.32 | relative viability ([19]; first compound 4 µM): 0.186 | relative viability ([20]; first compound 0.04 µM): 0.247 | relative viability ([20]; first compound 0.1265 µM): 0.185 | relative viability ([20]; first compound 0.4 µM): 0.179 | relative viability ([20]; first compound 1.265 µM): 0.166 | relative viability ([20]; first compound 4 µM): 0.173 | relative viability ([21]; first compound 0.04 µM): 0.122 | relative viability ([21]; first compound 0.1265 µM): 0.171 | relative viability ([21]; first compound 0.4 µM): 0.173 | relative viability ([21]; first compound 1.265 µM): 0.129 | relative viability ([21]; first compound 4 µM): 0.178
